Data as given in patent US20050004007A1, “Promotion of adoptosis in cancer cells by co-administration of cyclin dependent kinase inhibitiors and cellular differentiation agents” (priority 2000, published 2005).

Tests used:
Assay type in all cases: cell-based, human
[1] = tested on: p27KIP1; assay: Western analysis of p27KIP1 expression in U937 cells; details: 10 nM PMA, FP 50-100 nM, 24 h
Procedure: Western analysis. Equal quantities of protein (15 μg/condition for MAPK, 40 μg/condition for cytochrome c, or 25 μg/condition) were separated by SDS-PAGE [underphosporylated pRB (7.5%), poly(ADP-ribose)polymerase or PARP (8.0%), p44/p42 MAPK (10%), p21, p27, procaspase 3 (12%), and cytochrome c (15%)] and electroblotted onto nitrocellulose. Western analysis of p44/p42 MAPK protein was performed according to the manufacturer's instructions (New England Biolabs); otherwise, studies were performed as previously described [Wang et al, 1998]. Briefly, U937 cells (5×10^6) were pelleted by centrifugation, resuspended in 50 μl PBS, lysed by the addition of 2× Laemmli buffer and boiled for 5 min. Proteins were quantified with Coomassie protein assay reagent. Blots were blocked in PBS-T/5% milk, washed twice with PBS-T, and incubated overnight at 4° C. with the appropriate primary antibody. The blots were washed with PBS-T and incubated with a horseradish-peroxidase conjugated secondary antibody diluted appropriately in PBS-T/5% mill. […]
Alternatively, whole cell-pellets were washed twice in PBS, resuspended in PBS, and lysed by the addition of I volume of loading buffer. Lysates were boiled for 10 min, centrifuged at 12,800 g for 5 min and quantified using Coomassie protein assay reagent (Pierce, Rockfold, Ill.). […]

[2] = tested on: ERK1/2; assay: Western analysis of phosphorylated p44/p42 MAPK in U937 cells; details: 10 nM PMA, 100 nM FP, 30 min-6 h
Procedure: Western analysis. Equal quantities of protein (15 μg/condition for MAPK, 40 μg/condition for cytochrome c, or 25 μg/condition) were separated by SDS-PAGE [underphosporylated pRB (7.5%), poly(ADP-ribose)polymerase or PARP (8.0%), p44/p42 MAPK (10%), p21, p27, procaspase 3 (12%), and cytochrome c (15%)] and electroblotted onto nitrocellulose. Western analysis of p44/p42 MAPK protein was performed according to the manufacturer's instructions (New England Biolabs); otherwise, studies were performed as previously described [Wang et al, 1998]. Briefly, U937 cells (5×10^6) were pelleted by centrifugation, resuspended in 50 μl PBS, lysed by the addition of 2× Laemmli buffer and boiled for 5 min. Proteins were quantified with Coomassie protein assay reagent. Blots were blocked in PBS-T/5% milk, washed twice with PBS-T, and incubated overnight at 4° C. with the appropriate primary antibody. The blots were washed with PBS-T and incubated with a horseradish-peroxidase conjugated secondary antibody diluted appropriately in PBS-T/5% mill. Following incubation, blots were developed by enhanced chemiluminescence exposure to Kodak X-OMAT film (Eastman Kodak Co., Rochester, N.Y.) and reprobed with antibodies directed against actin to control for equal loading of protein.

[3] = tested on: pRb/E2F complexes; assay: pRb immunoprecipitation and EMSA of E2F in U937 cells; details: 8 h exposure; 10 nM PMA, 100 nM FP, 1 mM SB
Procedure: Electrophoretic Mobility Shift Assay (EMSA) and Immunoprecipitation (IP). Whole-cell extracts were prepared as previously described [Bagchi et al. 1990] and EMSA following IP was performed as previously reported [Chellapan et al. 1991]. Whole cell extracts (150 μg) were combined with 4 μl of anti-RB monoclonal antibody (Calbiochem) for the IP. Immunoprecipitated proteins were recovered on Protein A sepharose beads and dissociated by treatment with deoxycholate. The presence of E2F in the IP was monitored by EMSA as previously noted [Yee et al. 1987].
Immunoprecipitation and EMSA. Whole-cell extracts were prepared by hypotonic shock followed by salt extraction, as described previously (Chellappan et al., 1991). Portions (50 to 200 μg) of whole-cell extracts were treated with 5 μl of the appropriate primary antibody in a volume of 100 μl at 4° C. for 1 h. Then, 3 mg of protein A-Sepharose or protein G-Sepharose in a 100-μl volume was added and incubated for an additional hour. The binding was performed in a buffer containing 20 mM HEPES (pH 7.9), 40 mM KCl, 1 mM MgCl2, 0.1 mM EGTA, 0.1 mM EDTA, 0.1 mM DTT, 0.1 mM NaF, 0.1 mM Na3VO4, 0.5% NP-40, and 3 mg of BSA per ml. The beads were washed six times with 600 μl of the same buffer and boiled in 20 μl of SDS sample buffer. […] The gel was dried, and the bands were detected by autoradiography.

[4] = tested on: XIAP; assay: Western analysis of XIAP in U937 cells; details: FP 100 nM, SB 1 mM
Procedure: Alternatively, whole cell-pellets were washed twice in PBS, resuspended in PBS, and lysed by the addition of I volume of loading buffer. Lysates were boiled for 10 min, centrifuged at 12,800 g for 5 min and quantified using Coomassie protein assay reagent (Pierce, Rockfold, Ill.). 25 μg of total proteins per point were separated by SDS-PAGE and electro-blotted to nitrocellulose. The blots were blocked in 5% non-fat milk in PBS-T and probed for 1 h with the appropriate dilution of primary antibody. Blots were washed 3×10 min in PBS-T and then incubated with a 1:2000 dilution of peroxidase-conjugated secondary antibody for 1 h at room temperature. Blots were again washed 3×10 min in PBS-T and then developed by enhanced chemiluminesence. Where indicated, blots were stripped and re-probed with antibodies directed against actin. […]

For `CN1CC[C@H](c2c(O)cc(O)c3c(=O)cc(-c4ccccc4Cl)oc23)[C@H](O)C1` [FP, Flavopiridol], the p27KIP1 expression [1] was “no effect”, the “phosphorylation (activation) of ERK1/2” value [2] was “modestly increased ERK activation” and the “E2F binding to labeled probe after pRb immunoprecipitation” value [3] was “clear reduction in E2F binding”. The “levels of XIAP” value [4] was “modest decreases”.
